In PMC6715247 (PLoS Neglected Tropical Diseases, 2019):
Entries after “also recorded” stand apart in the source; their conditions may differ. Like-named read-outs stand apart in the source and are kept apart here.

Columns and labels:
[1] = system: Human foreskin fibroblast (HFF) cells; assay: WST-1-based cytotoxicity assay
Protocol: (§1) Human foreskin fibroblast (HFF) cells (purchased from ATCC) were routinely maintained in DMEM supplemented with 10% fetal bovine serum, 100 units/ml penicillin, […] and 1% GlutaMAX™-I (Thermo Fisher Scientific, Waltham, MA). A WST-1-based cytotoxicity assay was performed as previously described. In detail, HFF cells were plated at 1.0×10^4 cells/100 μL medium in each well of a 96-well culture plate, and incubated overnight at 37°C in a 5% CO2 atmosphere to allow cells to adhere to the wells. […] Numbers of viable cells were then assessed using the Premix WST-1 Cell Proliferation Assay System (Takara). […] DMSO was added at 1% as a negative control whereas ionomycin was added at 30 μM as a positive control. As a blank, the above culture medium was used in place of the solutions added.

[2] = biological target: rEhAPSK (Entamoeba histolytica, UniProt C4LUW9); assay: 96-well plate-based in vitro APSK activity assay (coupling assay, NADH decrease); type: biochemical; conditions: for Inhibition of rEhAPSK activity: 10 μM compound, 1% DMSO
Protocol: (§2) A coupling assay to measure APSK activity was performed as described except a 96-well plate was used. Briefly, each well contained 100 μL reaction mixture, which consisted of 90 μL coupling solution and 10 μL of either compound solution (see below) or 10% DMSO. […] The coupling solution was 100 mM Tris/HCl (pH 8.0), 1 mM MgCl2, 1 mM KCl, 5 mM Mg2ATP, 1 mM NADH, 1 mM PEP, 1 U NP1, 3.5 U PK, 5.0 U LDH, and APSK (≤3 μL). […] As controls, in place of purified APSK solution (rEhAPSK or rHsAPSK), 3 μL of a blank [50 mM Tris/HCl buffer (pH 8.0)], a solvent (elution buffer), a mock (rEhSF2), or denatured APSK suspensions obtained by heat-treatment, were added to the coupling solution. The activity of each sample was calculated after removing the baseline value of the blank control.
(§3) For the inhibition assay, 2 μL of each stock solution, which were distributed in a 96-well plate, were transferred to a new plate to make a replicate. After adding 18 μL deionized water to each well and mixing, 10 μL of each diluted solution (100 μM compound solution) was again transferred into a new 96-well plate to make a replicate. Then 90 μL of the coupling solution prepared above was dispensed into each well containing the previously added 10 μL of 100 μM compound solution. As a solvent control, 10% DMSO solution (vol/vol-deionized water) was used in place of compound solution. The final concentrations of each compound and DMSO in a well were 10 μM and 1% (vol/vol), respectively. The assays were performed independently three times, and data are shown as the mean with SD.
One millimolar stock solutions used were either thawed in a replicate (96-well plate) prepared in [18] […] Subsequently, 3.4 μL of the 1 mM and each diluted stock solution were dispensed into wells of a 96-well culture plate, containing 30.6 μL deionized water and mixed well by pipetting. Ten microliters of all resulting solutions were then dispensed into wells of a 96-well plate to make triplicates and then used as described for the above inhibition assay. 10% DMSO solution was used as an inhibitor-free control. Note that the final DMSO concentration in any well was 1% (vol/vol).
(§4) In all assays, prepared mixtures in a plate were mixed on a vibrating table equipped with either an EnVision or ARVO plate reader (PerkinElmer) before starting the reaction.

[3] = system: E. histolytica trophozoite; set-up: method as in PMID 30087858; conditions: 10 μM; ref [18]; cited from earlier work
[4] = WST-1-based cytotoxicity assay; conditions: human
Protocol: as §1

[5] = system: E. invadens cyst formation; set-up: method as in PMID 30087858; conditions: 10 μM; ref [18]; cited from earlier work
[6] = biological target: T1, rHsAPSK (recombinant APSK domain of HsPAPSS1) (Homo sapiens, UniProt O43252); assay: 96-well plate-based in vitro APSK activity assay (coupling assay, NADH decrease); type: biochemical; conditions: 10 μM compound, 1% DMSO
T1 construct: APSK domains of HsPAPSS1 (Ala^25—Pro^227) and -2 (Ser^15—Pro^217); His tag (pCold-I vector); made in house; host or cells: E. coli BL21(DE3)
T1 sequence (O43252 25-227): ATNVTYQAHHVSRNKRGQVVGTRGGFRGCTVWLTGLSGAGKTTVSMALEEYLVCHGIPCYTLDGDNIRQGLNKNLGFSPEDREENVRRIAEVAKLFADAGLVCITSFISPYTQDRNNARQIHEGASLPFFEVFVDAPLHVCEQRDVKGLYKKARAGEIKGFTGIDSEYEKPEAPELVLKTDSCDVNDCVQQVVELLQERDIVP
Protocol: as §2, §3, §4

[7] = system: E. histolytica trophozoites; assay: Morphological analysis by phase contrast microscopy; type: cell-based, Entamoeba histolytica; conditions: 6 h treatment
Excerpt: Cell morphology was then observed by phase contrast microscopy using a Primovert microscope (Carl Zeiss, Germany) with a COMS camera (E3CMOS12000KPA, ToupTek, China). […] Cell images were captured using ToupView software (ToupTek).

[8] = system: E. histolytica trophozoite; assay: E. histolytica trophozoite proliferation assay (flow cytometry); type: cell-based; conditions: Entamoeba histolytica, read-out: Trophozoite proliferation IC50
Protocol: (§5) E. histolytica trophozoite proliferation and E. invadens cyst formation assays were performed essentially as described in [18] except that in addition to 0–72 and 48–72 h cyst formation assays, 0–96 and 0–120 h, and 48–96 and 48–120 h assays were also performed.

[9] = system: sulfolipids synthesized in E. histolytica trophozoites; assay: Metabolic labeling by [35S]-labeled sulfate, sulfolipid synthesis; type: cell-based, Entamoeba histolytica; conditions: 6 h treatment; A-D-11, A-H-11 6.25-100 μM, E-H-05 0.5-8 μM
Protocol: Metabolic labeling of E. histolytica trophozoites by [^35S]-labeled sulfate was performed essentially as described previously with slight modification. […] Each 10 mM stock solution (in DMSO) of the three commercially sourced compounds was serially diluted by 2-fold decrements with DMSO. The resulting diluted solutions were then added to 0.75 ml cell suspension in BI-S-33 medium at 1/100 (vol/vol). […] Note that DMSO was used as a solvent control at 1%, which was the DMSO concentration in all samples analyzed. [^35S]-labeled sulfate (45 μCi) was added 4 h after the start of treatments and labeled cells were harvested at 6 h. […] Each spot on the TLC plates was quantified using a Fuji imaging analyzer and Multi Gauge 2.2 software (FLA-7000; Fujifilm, Japan). The total cell protein was estimated using a Pierce BCA protein assay kit (Thermo Scientific, Rockford, IL, USA).

[10] = system: E. invadens cyst formation; assay: E. invadens cyst formation (encystation) assay (flow cytometry); type: cell-based, Entamoeba invadens; conditions: for IC50: Entamoeba invadens, read-out: Cyst formation IC50; for Number of cysts formed at 72 h: compound added at 48 h post-induction (48–72 h)
Protocol: as §5

[11] = rEhAPSK, average ± SD, more than three independent experiments, read-out: APSK activity IC50
[12] = read-out: APSK activity IC50, rEhAPSK, average ± SD, more than three independent experiments

Chain of rEhAPSK (C4LUW9 entry or part of it): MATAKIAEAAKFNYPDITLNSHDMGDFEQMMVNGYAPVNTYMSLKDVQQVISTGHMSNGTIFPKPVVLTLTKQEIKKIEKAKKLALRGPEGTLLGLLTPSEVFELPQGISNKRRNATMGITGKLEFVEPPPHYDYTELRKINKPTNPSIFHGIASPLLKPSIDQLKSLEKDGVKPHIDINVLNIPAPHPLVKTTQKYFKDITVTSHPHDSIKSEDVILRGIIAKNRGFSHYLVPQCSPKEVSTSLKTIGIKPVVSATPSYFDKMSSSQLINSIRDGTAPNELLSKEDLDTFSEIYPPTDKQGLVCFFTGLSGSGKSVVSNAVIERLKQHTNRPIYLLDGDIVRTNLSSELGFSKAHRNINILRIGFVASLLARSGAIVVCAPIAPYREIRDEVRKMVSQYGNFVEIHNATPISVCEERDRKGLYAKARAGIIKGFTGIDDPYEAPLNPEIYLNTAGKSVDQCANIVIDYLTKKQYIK

Row | SMILES | Number of viable HFF cells relative to 1% DMSO control (set as 100%) ([1]; 10 μM, 48 h) | Inhibition of rEhAPSK activity [2] | IC50 [2, 11] [µM] | also measured
1 | C[C@H](CCC(=O)O)C[C@H](C)C[C@H](C)C(=O)/C=C(\O)[C@H](C)C[C@H](C)C/C=C/[C@@H](C)[C@@H](O)[C@@H](C)[C@@H](O)C[C@@H]1CC[C@@](C)([C@H]2CC[C@@](C)([C@@H](C)O)O2)O1 [ionomycin, reference compound] | – | – | – | HFF cell viability ([1]; 30 μM, positive control): almost completely abolished cell viability
2 | N=C(N)Nc1ccc(-c2ccc(-c3ccc(NC(=N)N)cc3Cl)o2)c(Cl)c1 [C-F-03] | did not affect numbers of viable cells | reproducibly inhibited rEhAPSK activity | 2.03 ± 0.205 | –
3 | O=C(Nc1nc(-c2ccccn2)cs1)c1cncn1-c1ccccc1 [A-H-11, 3-phenyl-N-[4-(2-pyridyl)thiazol-2-yl]-imidazole-4-carboxamide] | did not affect numbers of viable cells; also recorded: did not influence numbers of viable HFF cells | reproducibly inhibited rEhAPSK activity | 6.75 ± 1.35 | Effect on trophozoite proliferation [3]: negative effects; IC50 at 48 h ([4]; human foreskin fibroblast (HFF) cells): > 100 µM; Number of viable HFF cells relative to DMSO control ([1]; 100 μM, 48 h): did not influence numbers of viable HFF cells; Effect on cyst formation [5]: negative effects; Inhibition of rHsAPSK activity [6]: none showed any inhibitory activity against HsAPSK; Concentration range that produced trophozoite morphology similar to DMSO control [7]: 6.25–100 μM; IC50 ([8]; average ± SD, three independent experiments): 4 ± 1.05 µM; Amount of sulfolipids synthesized [9]: dose-dependently reduced the amount of sulfolipids synthesized; IC50 ([10]; 0–72 h, average ± SD, three independent experiments): 2.35 ± 0.132 µM; Number of cysts formed at 72 h [10]: neither A-D-11 nor A-H-11 affected the number of cysts formed at 72 h
4 | C[C@]1(COc2ccc(N3CCC(Oc4ccc(OC(F)(F)F)cc4)CC3)cc2)Cn2cc([N+](=O)[O-])nc2O1 [C-F-06, delamanid, reference compound] | did not affect numbers of viable cells | reproducibly inhibited rEhAPSK activity | > 10 | –
5 | O=C(COc1cccc(F)c1)Nc1nc(-c2ccccn2)cs1 [A-D-11, 2-(3-fluorophenoxy)-N-[4-(2-pyridyl)thiazol-2-yl]-acetamide] | – | reproducibly inhibited rEhAPSK activity | – | IC50 at 48 h [4]: > 100 µM; Effect on cyst formation [5]: negative effects; Inhibition of rHsAPSK activity [6]: none showed any inhibitory activity against HsAPSK; Concentration range that produced trophozoite morphology similar to DMSO control [7]: 6.25–100 μM; IC50 [8]: 7.5 ± 2.29 µM; Amount of sulfolipids synthesized [9]: dose-dependently reduced the amount of sulfolipids synthesized; IC50 [2]: 6.3 ± 1.53 µM; IC50 [2, 12]: < 10 µM; IC50 [10]: 2.27 ± 0.252 µM; Number of cysts formed at 72 h [10]: neither A-D-11 nor A-H-11 affected the number of cysts formed at 72 h
6 | COc1cccc(-n2nnnc2S(=O)(=O)Cc2ccccc2)c1 [A-F-04] | – | reproducibly inhibited rEhAPSK activity | > 10 | –
7 | COc1ccc(Cl)cc1NC(=O)CN(C)C(=O)c1cnn(-c2ccccc2)n1 [B-C-08] | did not affect numbers of viable cells | reproducibly inhibited rEhAPSK activity | 6.57 ± 1.25 | –
8 | Cn1c(=O)c2c(S(C)(=O)=O)snc2n(C)c1=O [C-C-06] | – | reproducibly inhibited rEhAPSK activity | 8.67 ± 2.62 | –
9 | N=C(N)Nc1ccc(-c2ccc(-c3ccc(NC(=N)N)c(Cl)c3)o2)cc1Cl [D-E-10] | did not affect numbers of viable cells | reproducibly inhibited rEhAPSK activity | 0.47 ± 0.0499 | –
10 | Cc1cc(C)cc(COc2ccc3c(C)c(CCC(=O)O)c(=O)oc3c2C)c1 [A-F-07] | did not affect numbers of viable cells | reproducibly inhibited rEhAPSK activity | 7.67 ± 1.25 | –
11 | Cc1ccc(C(=O)Nc2ccc(S(=O)(=O)O)c3cc(S(=O)(=O)O)cc(S(=O)(=O)O)c23)cc1NC(=O)c1cccc(NC(=O)Nc2cccc(C(=O)Nc3cc(C(=O)Nc4ccc(S(=O)(=O)O)c5cc(S(=O)(=O)O)cc(S(=O)(=O)O)c45)ccc3C)c2)c1 [B-D-03, suramin, reference compound] | – | reproducibly inhibited rEhAPSK activity | 0.52 ± 0.102 | Number of viable HFF cells relative to 1% DMSO control (set as 100%) ([1]; 10 µM): did not affect numbers of viable cells
12 | Cc1cc(C2=NOC(c3cc(Cl)c(F)c(Cl)c3)(C(F)(F)F)C2)ccc1C(=O)NCc1ccc2c(c1)C(C)(C)OB2O (centres unmarked) [B-B-05] | – | reproducibly inhibited rEhAPSK activity | – | Number of viable HFF cells relative to 1% DMSO control (set as 100%) ([1]; 10 µM): did not affect numbers of viable cells; IC50 [2]: 5.73 ± 1.36 µM; IC50 [2, 12]: < 10 µM
13 | COc1ccc(C2=NN(C3CCCCCC3)C(=O)C3CC=CCC23)cc1OCCCCOc1ccc(-c2nnn[nH]2)cc1 (centres unmarked) [B-C-02] | – | reproducibly inhibited rEhAPSK activity | – | Number of viable HFF cells relative to 1% DMSO control (set as 100%) ([1]; 10 µM): ~20 − ~60
14 | O=C(Nc1nnc(S)s1)c1cc(Br)ccc1Cl [E-G-10] | did not affect numbers of viable cells | reproducibly inhibited rEhAPSK activity | > 10 | –
15 | COc1ccc(C2=NN(C3CCCCCC3)C(=O)C2(C)C)cc1OCCCCOc1ccc(-c2nnn[nH]2)cc1 [A-C-05] | – | reproducibly inhibited rEhAPSK activity | – | IC50 [2]: 4.73 ± 1.16 µM; IC50 [2, 12]: < 10 µM
